The results in this text go back to PMC12748989 (Nature Communications, 2025).

For one test, the system named is PBMC. To be noted: 12.5 µM.

As for `CC[C@H](C)[C@H](N)C(=O)N[C@@H](CC(N)=O)C(=O)N[C@@H](CC(C)C)C(=O)N[C@@H](CCCCN)C(=O)N[C@@H](C)C(=O)N[C@@H](CC(C)C)C(=O)N[C@@H](C)C(=O)N[C@@H](C)C(=O)N[C@@H](CC(C)C)C(=O)N[C@@H](C)C(=O)N[C@@H](CC(N)=O)C(=O)N[C@@H](CCCCN)C(=O)N[C@H](C(=O)N[C@@H](CC(C)C)C(N)=O)[C@@H](C)CC` [N11], the “Average (percentage cell inhibition), Mastoparan PBMC” value in the test with PBMC worked out at 4.624%. In the test on MDA-MB-231 cells, the “Average (percentage cell inhibition), Dmastoparan MDA-MB231 12.5uM” value was determined as 40.5108%.
`CC[C@H](C)[C@H](N)C(=O)N[C@@H](CC(N)=O)C(=O)N[C@@H](CC(C)C)C(=O)N[C@@H](CCCCN)C(=O)N[C@@H](C)C(=O)N[C@@H](CC(C)C)C(=O)N[C@@H](C)C(=O)N[C@@H](C)C(=O)N[C@@H](CC(C)C)C(=O)N[C@@H](C)C(=O)N[C@@H](CCCCN)C(=O)N[C@@H](CC(N)=O)C(=O)N[C@H](C(=O)N[C@@H](CC(C)C)C(N)=O)[C@@H](C)CC` [N12]: the “Average (percentage cell inhibition), Mastoparan PBMC” value in the test on PBMC worked out at 5.917%. In addition, the “Average (percentage cell inhibition), Dmastoparan MDA-MB231 12.5uM” value with MDA-MB-231 cells is 52.6491%.
`CC[C@H](C)[C@H](N)C(=O)N[C@@H](CC(N)=O)C(=O)N[C@@H](CC(C)C)C(=O)N[C@@H](CCCCN)C(=O)N[C@@H](C)C(=O)N[C@@H](CC(C)C)C(=O)N[C@@H](C)C(=O)N[C@@H](C)C(=O)N[C@@H](CC(C)C)C(=O)N[C@@H](C)C(=O)N[C@@H](CCCCN)C(=O)N[C@@H](CCCCN)C(=O)N[C@@H](CC(N)=O)C(=O)N[C@@H](CC(C)C)C(N)=O` [N13]: the “Average (percentage cell inhibition), Mastoparan PBMC” value with PBMC worked out at 7.072%. Besides, the “Average (percentage cell inhibition), Dmastoparan MDA-MB231 12.5uM” value in the test with MDA-MB-231 cells turned out to be 29.0846%.
Taken in the same sequence, the figures for `CC[C@H](C)[C@H](N)C(=O)N[C@@H](CC(N)=O)C(=O)N[C@@H](CC(C)C)C(=O)N[C@@H](CCCCN)C(=O)N[C@@H](C)C(=O)N[C@@H](CC(C)C)C(=O)N[C@@H](C)C(=O)N[C@@H](C)C(=O)N[C@@H](CC(C)C)C(=O)N[C@@H](C)C(=O)N[C@@H](CCCCN)C(=O)N[C@@H](CCCCN)C(=O)N[C@H](C(=O)N[C@@H](CC(N)=O)C(N)=O)[C@@H](C)CC` [N14] were 9.15% and -1.851%.
Taken in the same sequence, the figures for `CC[C@H](C)[C@H](NC(=O)[C@H](CCCCN)NC(=O)[C@H](CCCCN)NC(=O)[C@H](C)NC(=O)[C@H](CC(C)C)NC(=O)[C@H](C)NC(=O)[C@H](C)NC(=O)[C@H](CC(C)C)NC(=O)[C@H](C)NC(=O)[C@H](CCCCN)NC(=O)[C@H](CC(C)C)NC(=O)[C@H](CC(N)=O)NC(=O)[C@@H]1CCCN1)C(=O)N[C@@H](CC(C)C)C(N)=O` [P1] were -0.6303% and 43.0723%.
Taken in the same sequence, the figures for `CC[C@H](C)[C@H](N)C(=O)N1CCC[C@H]1C(=O)N[C@@H](CC(C)C)C(=O)N[C@@H](CCCCN)C(=O)N[C@@H](C)C(=O)N[C@@H](CC(C)C)C(=O)N[C@@H](C)C(=O)N[C@@H](C)C(=O)N[C@@H](CC(C)C)C(=O)N[C@@H](C)C(=O)N[C@@H](CCCCN)C(=O)N[C@@H](CCCCN)C(=O)N[C@H](C(=O)N[C@@H](CC(C)C)C(N)=O)[C@@H](C)CC` [P2] were -4.49% and 36.9174%.
`CC[C@H](C)[C@H](N)C(=O)N[C@@H](CC(N)=O)C(=O)N1CCC[C@H]1C(=O)N[C@@H](CCCCN)C(=O)N[C@@H](C)C(=O)N[C@@H](CC(C)C)C(=O)N[C@@H](C)C(=O)N[C@@H](C)C(=O)N[C@@H](CC(C)C)C(=O)N[C@@H](C)C(=O)N[C@@H](CCCCN)C(=O)N[C@@H](CCCCN)C(=O)N[C@H](C(=O)N[C@@H](CC(C)C)C(N)=O)[C@@H](C)CC` [P3]: the “Average (percentage cell inhibition), Mastoparan PBMC” value in the test on PBMC was -5.207%. For the same molecule, the “Average (percentage cell inhibition), Dmastoparan MDA-MB231 12.5uM” value in the test on MDA-MB-231 cells came out at 17.7289%.
Take `CC[C@H](C)[C@H](N)C(=O)N[C@@H](CC(N)=O)C(=O)N[C@@H](CC(C)C)C(=O)N1CCC[C@H]1C(=O)N[C@@H](C)C(=O)N[C@@H](CC(C)C)C(=O)N[C@@H](C)C(=O)N[C@@H](C)C(=O)N[C@@H](CC(C)C)C(=O)N[C@@H](C)C(=O)N[C@@H](CCCCN)C(=O)N[C@@H](CCCCN)C(=O)N[C@H](C(=O)N[C@@H](CC(C)C)C(N)=O)[C@@H](C)CC` [P4]: the “Average (percentage cell inhibition), Mastoparan PBMC” value with PBMC is listed as -6.014%. Moreover, the “Average (percentage cell inhibition), Dmastoparan MDA-MB231 12.5uM” value with MDA-MB-231 cells is on record as 10.9719%.
Consider `CC[C@H](C)[C@H](N)C(=O)N[C@@H](CC(N)=O)C(=O)N[C@@H](CC(C)C)C(=O)N[C@@H](CCCCN)C(=O)N1CCC[C@H]1C(=O)N[C@@H](CC(C)C)C(=O)N[C@@H](C)C(=O)N[C@@H](C)C(=O)N[C@@H](CC(C)C)C(=O)N[C@@H](C)C(=O)N[C@@H](CCCCN)C(=O)N[C@@H](CCCCN)C(=O)N[C@H](C(=O)N[C@@H](CC(C)C)C(N)=O)[C@@H](C)CC` [P5], for which the “Average (percentage cell inhibition), Mastoparan PBMC” value in the test on PBMC stood at 0.2776%. Further, the “Average (percentage cell inhibition), Dmastoparan MDA-MB231 12.5uM” value in the test on MDA-MB-231 cells came to 25.1894%.
`CC[C@H](C)[C@H](N)C(=O)N[C@@H](CC(N)=O)C(=O)N[C@@H](CC(C)C)C(=O)N[C@@H](CCCCN)C(=O)N[C@@H](C)C(=O)N1CCC[C@H]1C(=O)N[C@@H](C)C(=O)N[C@@H](C)C(=O)N[C@@H](CC(C)C)C(=O)N[C@@H](C)C(=O)N[C@@H](CCCCN)C(=O)N[C@@H](CCCCN)C(=O)N[C@H](C(=O)N[C@@H](CC(C)C)C(N)=O)[C@@H](C)CC` [P6]: the “Average (percentage cell inhibition), Mastoparan PBMC” value with PBMC is on record as -8.854%. Also, the “Average (percentage cell inhibition), Dmastoparan MDA-MB231 12.5uM” value with MDA-MB-231 cells is on record as -16.4349%.
Regarding `CC[C@H](C)[C@H](N)C(=O)N[C@@H](CC(N)=O)C(=O)N[C@@H](CC(C)C)C(=O)N[C@@H](CCCCN)C(=O)N[C@@H](C)C(=O)N[C@@H](CC(C)C)C(=O)N1CCC[C@H]1C(=O)N[C@@H](C)C(=O)N[C@@H](CC(C)C)C(=O)N[C@@H](C)C(=O)N[C@@H](CCCCN)C(=O)N[C@@H](CCCCN)C(=O)N[C@H](C(=O)N[C@@H](CC(C)C)C(N)=O)[C@@H](C)CC` [P7], the “Average (percentage cell inhibition), Mastoparan PBMC” value in the test on PBMC is listed as -9.322%. In addition, the “Average (percentage cell inhibition), Dmastoparan MDA-MB231 12.5uM” value with MDA-MB-231 cells was -0.6456%.
With `CC[C@H](C)[C@H](N)C(=O)N[C@@H](CC(N)=O)C(=O)N[C@@H](CC(C)C)C(=O)N[C@@H](CCCCN)C(=O)N[C@@H](C)C(=O)N[C@@H](CC(C)C)C(=O)N[C@@H](C)C(=O)N1CCC[C@H]1C(=O)N[C@@H](CC(C)C)C(=O)N[C@@H](C)C(=O)N[C@@H](CCCCN)C(=O)N[C@@H](CCCCN)C(=O)N[C@H](C(=O)N[C@@H](CC(C)C)C(N)=O)[C@@H](C)CC` [P8], the “Average (percentage cell inhibition), Mastoparan PBMC” value in the test with PBMC is on record as -8.536%. Further, in the test with MDA-MB-231 cells, the “Average (percentage cell inhibition), Dmastoparan MDA-MB231 12.5uM” value is reported as 8.428%.
Consider `CC[C@H](C)[C@H](N)C(=O)N[C@@H](CC(N)=O)C(=O)N[C@@H](CC(C)C)C(=O)N[C@@H](CCCCN)C(=O)N[C@@H](C)C(=O)N[C@@H](CC(C)C)C(=O)N[C@@H](C)C(=O)N[C@@H](C)C(=O)N1CCC[C@H]1C(=O)N[C@@H](C)C(=O)N[C@@H](CCCCN)C(=O)N[C@@H](CCCCN)C(=O)N[C@H](C(=O)N[C@@H](CC(C)C)C(N)=O)[C@@H](C)CC` [P9], for which the “Average (percentage cell inhibition), Mastoparan PBMC” value with PBMC is recorded as -6.87%. For the same molecule, the “Average (percentage cell inhibition), Dmastoparan MDA-MB231 12.5uM” value with MDA-MB-231 cells is listed as 35.5446%.
Taken in the same sequence, the figures for `CC[C@H](C)[C@H](N)C(=O)N[C@@H](CC(N)=O)C(=O)N[C@@H](CC(C)C)C(=O)N[C@@H](CCCCN)C(=O)N[C@@H](C)C(=O)N[C@@H](CC(C)C)C(=O)N[C@@H](C)C(=O)N[C@@H](C)C(=O)N[C@@H](CC(C)C)C(=O)N1CCC[C@H]1C(=O)N[C@@H](CCCCN)C(=O)N[C@@H](CCCCN)C(=O)N[C@H](C(=O)N[C@@H](CC(C)C)C(N)=O)[C@@H](C)CC` [P10] were -7.837% and 28.7019%.
Turning to `CC[C@H](C)[C@H](N)C(=O)N[C@@H](CC(N)=O)C(=O)N[C@@H](CC(C)C)C(=O)N[C@@H](CCCCN)C(=O)N[C@@H](C)C(=O)N[C@@H](CC(C)C)C(=O)N[C@@H](C)C(=O)N[C@@H](C)C(=O)N[C@@H](CC(C)C)C(=O)N[C@@H](C)C(=O)N1CCC[C@H]1C(=O)N[C@@H](CCCCN)C(=O)N[C@H](C(=O)N[C@@H](CC(C)C)C(N)=O)[C@@H](C)CC` [P11], the “Average (percentage cell inhibition), Mastoparan PBMC” value in the test with PBMC is reported as -9.695%. The “Average (percentage cell inhibition), Dmastoparan MDA-MB231 12.5uM” value with MDA-MB-231 cells is -0.07814%.
Consider `CC[C@H](C)[C@H](N)C(=O)N[C@@H](CC(N)=O)C(=O)N[C@@H](CC(C)C)C(=O)N[C@@H](CCCCN)C(=O)N[C@@H](C)C(=O)N[C@@H](CC(C)C)C(=O)N[C@@H](C)C(=O)N[C@@H](C)C(=O)N[C@@H](CC(C)C)C(=O)N[C@@H](C)C(=O)N[C@@H](CCCCN)C(=O)N1CCC[C@H]1C(=O)N[C@H](C(=O)N[C@@H](CC(C)C)C(N)=O)[C@@H](C)CC` [P12], for which the “Average (percentage cell inhibition), Mastoparan PBMC” value in the test with PBMC is listed as -2.814%. In addition, the “Average (percentage cell inhibition), Dmastoparan MDA-MB231 12.5uM” value in the test on MDA-MB-231 cells is -19.0406%.
On to `CC[C@H](C)[C@H](N)C(=O)N[C@@H](CC(N)=O)C(=O)N[C@@H](CC(C)C)C(=O)N[C@@H](CCCCN)C(=O)N[C@@H](C)C(=O)N[C@@H](CC(C)C)C(=O)N[C@@H](C)C(=O)N[C@@H](C)C(=O)N[C@@H](CC(C)C)C(=O)N[C@@H](C)C(=O)N[C@@H](CCCCN)C(=O)N[C@@H](CCCCN)C(=O)N1CCC[C@H]1C(=O)N[C@@H](CC(C)C)C(N)=O` [P13], for which the “Average (percentage cell inhibition), Mastoparan PBMC” value in the test with PBMC is -11.6187%. Moreover, the “Average (percentage cell inhibition), Dmastoparan MDA-MB231 12.5uM” value in the test with MDA-MB-231 cells was -16.5854%.
Taken in the same sequence, the figures for `CC[C@H](C)[C@H](N)C(=O)N[C@@H](CC(N)=O)C(=O)N[C@@H](CC(C)C)C(=O)N[C@@H](CCCCN)C(=O)N[C@@H](C)C(=O)N[C@@H](CC(C)C)C(=O)N[C@@H](C)C(=O)N[C@@H](C)C(=O)N[C@@H](CC(C)C)C(=O)N[C@@H](C)C(=O)N[C@@H](CCCCN)C(=O)N[C@@H](CCCCN)C(=O)N[C@H](C(=O)N1CCC[C@H]1C(N)=O)[C@@H](C)CC` [P14] were -11.4473% and 0.693%.
Turning to `CC[C@H](C)[C@H](NC(=O)[C@H](CCCCN)NC(=O)[C@H](CCCCN)NC(=O)[C@H](C)NC(=O)[C@H](CC(C)C)NC(=O)[C@H](C)NC(=O)[C@H](C)NC(=O)[C@H](CC(C)C)NC(=O)[C@H](C)NC(=O)[C@H](CCCCN)NC(=O)[C@H](CC(C)C)NC(=O)[C@H](CC(N)=O)NC(=O)[C@@H](N)CCC(N)=O)C(=O)N[C@@H](CC(C)C)C(N)=O` [Q1], in the test on PBMC, the “Average (percentage cell inhibition), Mastoparan PBMC” value was 13.6421%. In addition, the “Average (percentage cell inhibition), Dmastoparan MDA-MB231 12.5uM” value in the test on MDA-MB-231 cells came to 44.2177%.
